Measured values: patent US20140100286A1, “COMPOSITION FOR PREVENTING OR TREATING INFLAMMATORY DISEASES COMPRISING VERATRIC ACID AS EFFECTIVE COMPONENT” (Pukyong National University Industry-University Cooperation …, priority 2012, published 2014)

Legend:
Type in all cases: cell-based, murine
TNF-α = TNF-α protein expression, Western blot; details: LPS-stimulated RAW264.7 cells, Western blot (FIG. 6)
IFN-γ = IFN-γ protein expression, Western blot; details: LPS-stimulated RAW264.7 cells, Western blot (FIG. 6)
p38 = assay: Phosphorylation of p38, Western blot; details: LPS-stimulated macrophage cells, Western blot (FIG. 9); stronger effect than on JNK, ERK1/2
Protocol: (§1) The prepared murine macrophage cells treated with the LPS in combination with the veratric acid were collected and lysed by using a lysis buffer {50 mM Tris-Cl [pH7.5], 150 mM NaCl, 1 mM DTT, 0.5% NP-40, 1% Triton X-100, 1% deoxycholate, 0.1% SDS and a cocktail of proteinase inhibitors [1 mM PMSF, 1 mM EDTA, 11 μM aprotinin, 11 μM leupeptin, and 11 μM pepstatin A (Intron Biotechnology, Gyeonggi, Korea)]}. Protein samples were electrophoresed by 12% SDS-PAGE and then electrically transferred to a nitrocellulose membrane. Thereafter, the protein samples were allowed to react with primary antibodies capable of recognizing the iNOS. After the membrane was washed and then allowed to react with horseradish peroxidase-linked anti-rabbit IgG or anti-rabbit IgG (Cell Signaling Technology Inc., USA). Then, signals were checked by using an enhanced chemiluminescent (ECL) detection system (Pierce, USA).
(§2) Protein expression levels of JNK, p38, and ERK1/2 in the LPS-stimulated macrophage cells were checked through a Western blot analysis performed in the same manner as Example 3 in order to confirm whether or not the veratric acid affected an activity of MAPK as a superordinate signaling system that produced pro-inflammatory cytokines.

cyclooxygenase-2 (COX-2) = assay: COX-2 gene and protein expression, RT-PCR and Western blot; details: LPS-stimulated RAW264.7 cells
[1] = tested on: macrophage RAW264.7 cells; assay: Cytotoxicity of veratric acid, WST-1 cell viability; details: up to 200 μM, 3 h pretreatment then 100 ng/ml LPS 24 h
Protocol: Cell lines used to evaluate cytotoxicity of a veratric acid were macrophage RAW264.7, human embryonic kidney (HEK) 293, and human keratinocyte (HaCaT) cells. For a cytotoxicity experiment, the cell lines were first incubated in a culture solution of DMEM containing 10% fetal bovine serum (FBS) and 1% penicillin (100 U/ml)/streptomycin (100 U/ml) under a condition of 5% CO2 at a temperature of 37° C. Then, the incubated cells were seeded in a 96-well plate at 1×10^5 cells/well. Each of the cells was treated at different concentrations (0, 50, 100, 150 and 200 μM) of a veratric acid and incubated for 3 hours. After the incubation, the cells were stimulated with 100 ng/ml LPS contained in a culture medium for 24 hours. Thereafter, the culture solution was removed, and then, the cells were treated with a solution of WST-1® (Daeil Lab service, Korea) and further incubated for 3 hours. An optical density of the culture solution was measured at 460 nm by using an ELIZA analyzer to analyze cell viability.

[2] = tested on: nitric oxide production in macrophage RAW264.7 cells; assay: Nitric oxide (NO) production, Griess reagent; details: LPS 100 ng/ml in combination with veratric acid 50-200 μM, inhibition in proportion to concentration (FIG. 3B)
Protocol: In order to confirm whether or not the veratric acid has an activity of inhibiting production of nitric oxide that causes inflammation, the following experiment was performed. The prepared macrophage RAW264.7 cells were seeded in a 96-well plate at 1×10^5 cells/well. Each of the cells was treated at different concentrations (0, 50, 100, 150 and 200 μM) of the veratric acid and incubated for 3 hours. The cells were incubated in a culture medium containing 100 ng/ml LPS for 24 hours. Thereafter, a culture solution was acquired. After the culture solution was allowed to react with a Griess reagent, a production level of nitric oxide induced by the LPS was measured at 540 nm by using the ELIZA analyzer (BD PharMingen, USA).

IL-6 = IL-6 protein expression, Western blot; details: LPS-stimulated RAW264.7 cells, Western blot (FIG. 6)
GSK-3β = assay: Phosphorylation of GSK-3β, Western blot; details: LPS-stimulated macrophage cells, concentration dependent (FIG. 10)
Protocol: as §1
A protein expression level of GSK-3β in the LPS-stimulated macrophage cells was checked through a Western blot analysis performed in the same manner as Example 3 in order to confirm whether or not the veratric acid affected phosphorylation of the GSK-3β as a superordinate signaling system that caused inflammatory reactions.

NF-κB [3] = assay: Phosphorylation of NF-κB, Western blot; details: LPS-stimulated macrophage cells, reduction in proportion to concentration (FIGS. 8A, 8B)
Protocol: as §1
(§3) An NF-κB is a transcription factor and when the NF-κB is activated by phosphorylated IκBα, it is moved into a nucleus and bound to a promoter site such that target molecules can be transcribed. Thus, the present inventors performed a Western blot analysis and an immunofluorescent microscopy as follows in order to confirm whether or not the veratric acid affected protein levels of the NF-κB and the IκBα. […]

IκBα = assay: Phosphorylation of IκBα, Western blot; details: LPS-stimulated macrophage cells, Western blot (FIGS. 8A, 8B)
Protocol: as §1, §3

NF-κB [4] = assay: Intracellular distribution of NF-κB, immunofluorescent microscopy; details: 100 μM veratric acid 1 hour, LPS 12 hours, immunofluorescent microscopy (FIGS. 8C, 8D)
Text: An NF-κB is a transcription factor and when the NF-κB is activated by phosphorylated IκBα, it is moved into a nucleus and bound to a promoter site such that target molecules can be transcribed. Thus, the present inventors performed a Western blot analysis and an immunofluorescent microscopy as follows in order to confirm whether or not the veratric acid affected protein levels of the NF-κB and the IκBα. That is, protein expression levels of the NF-κB and the IκBα in the LPS-stimulated macrophage cells were checked through the Western blot analysis performed in the same manner as Example 3, and in the immunofluorescent microscopy, after 100 μM veratric acid was treated for 1 hour, LPS was incubated for 12 hours, and 4,6-diamidino-2-phenylindole (DAPI) was treated at room temperature for 15 minutes, the cells were immobilized with 4% formaldehyde and then distribution of the NF-κB in the cells was checked visually.

IL-1β = IL-1β protein expression, Western blot; details: LPS-stimulated RAW264.7 cells, Western blot (FIG. 6)
JNK = assay: Phosphorylation of JNK, Western blot; details: LPS-stimulated macrophage cells, Western blot (FIG. 9)
Protocol: as §1, §2

STAT-1 = assay: Phosphorylation of STAT-1, Western blot; details: LPS-stimulated macrophage cells, concentration dependent (FIG. 7)
Protocol: as §1
It is known that secreted IFN-γ promotes phosphorylation of STAT-1 and induces transcription of iNOS, and an activity of the iNOS causes production of nitric oxide and induces inflammation. Therefore, protein expression levels of STAT-1 and phosphorylated STAT-1 were checked through a Western blot analysis performed in the same manner as Example 3 in order to confirm an effect of the veratric acid, which reduced the protein level of the IFN-γ in Example 5, on phosphorylation of STAT-1.

c-Raf = assay: Phosphorylation of c-Raf at Ser259 and Ser338, Western blot; details: LPS-stimulated macrophage cells, Western blot (FIG. 11)
Protocol: as §1
If c-Raf (RAF proto-oncogene serine/threonine-protein kinase) is phosphorylated at Ser^338, the c-Raf induces expression of iNOS. Thus, the present inventors checked a protein level of the c-Raf in the LPS-stimulated macrophage cells and a phosphorylated protein level at Ser^259 and Ser^338 of the c-Raf through a Western blot analysis performed in the same manner as Example 3 in order to confirm whether or not the veratric acid affected the protein level of the c-Raf.

ERK1/2 = assay: Phosphorylation of ERK1/2, Western blot; details: LPS-stimulated macrophage cells, Western blot (FIG. 9)
Protocol: as §1, §2

[5] = tested on: inducible nitric oxide synthase (iNOS); assay: iNOS gene and protein expression, RT-PCR and Western blot; details: LPS-stimulated RAW264.7 cells, concentration dependent (FIG. 4)
Protocol: Thus, the present inventors performed an RT-PCR and a Western blot analysis as follows in order to confirm whether or not the veratric acid's mechanism of inhibiting nitric oxide production was operated by regulating expression and protein activity of iNOS as an inducible nitric oxide synthase involved in nitric oxide production.
The prepared murine macrophage RAW264.7 cells treated with the LPS in combination with the veratric acid were used. RNA was extracted and separated from the incubated cells by using 2-mercaptoethanol (Sigma, USA). An RT-PCR was performed by using primers listed in Table 1 with the extracted RNA as a template. Then, after electrophoresis, an expression level of a gene was checked with ultraviolet light.
as §1, with “After the membrane was washed and then allowed to react with horseradish peroxidase-linked anti-rabbit IgG or anti-rabbit IgG (Cell Signaling Technology Inc., USA). Then, signals were checked by using an enhanced chemiluminescent (ECL) detection system (Pierce, USA).” left out

COc1ccc(C(=O)O)cc1OC [veratric acid, 3,4-Dimethoxybenzoic acid]
protein expression level of TNF-α (TNF-α): did not affect
protein expression level of IFN-γ (IFN-γ): reduced
phosphorylation of the p38 (p38): inhibited
gene expression of COX-2 (cyclooxygenase-2 (COX-2); RT-PCR (FIG. 5)): did not affect
protein expression of COX-2 (cyclooxygenase-2 (COX-2); Western blot (FIG. 5)): did not affect
cytotoxicity (cell viability) [1]: did not show cytotoxicity
excessive production of nitric oxide [2]: inhibited
protein expression level of IL-6 (IL-6): did not affect
phosphorylation of the GSK-3β (GSK-3β): remarkably inhibited
protein expression of the phosphorylated NF-κB (NF-κB [3]): remarkably reduced
phosphorylated IκBα (IκBα): reduced
movement of the NF-κB into the nucleus (NF-κB [4]): inhibited
protein expression level of IL-1β (IL-1β): reduced
phosphorylation of the JNK (JNK): inhibited
phosphorylation of the STAT-1 (STAT-1): reduced
phosphorylation at Ser259 of the c-Raf (c-Raf): did not affect
phosphorylation at Ser338 of the c-Raf (c-Raf): inhibited
phosphorylation of the ERK1/2 (ERK1/2): inhibited
gene expression of iNOS ([5]; RT-PCR): decreased or inhibited strongly
protein expression of iNOS ([5]; Western blot): decreased or inhibited strongly
